From ChEMBL document CHEMBL4400508, “Targeted Endocrine Therapy: Design, Synthesis, and Proof-of-Principle of 17β-Hydroxysteroid Dehydrogenase Type 2 Inhibitors in Bone Fracture Healing” (J Med Chem, 2019)

Key:
[1] = target: T1, 17-beta-hydroxysteroid dehydrogenase type 1 (Homo sapiens, UniProt P14061)
T1 sequence (P14061 whole entry): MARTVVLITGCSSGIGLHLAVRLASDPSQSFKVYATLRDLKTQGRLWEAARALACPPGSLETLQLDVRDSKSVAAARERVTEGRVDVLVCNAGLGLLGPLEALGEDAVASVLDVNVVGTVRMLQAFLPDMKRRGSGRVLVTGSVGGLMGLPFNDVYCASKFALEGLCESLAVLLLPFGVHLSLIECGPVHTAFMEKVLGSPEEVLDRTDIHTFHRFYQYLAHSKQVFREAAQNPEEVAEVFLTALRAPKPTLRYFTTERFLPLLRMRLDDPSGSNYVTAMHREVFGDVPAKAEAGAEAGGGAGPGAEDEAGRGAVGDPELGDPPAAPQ
Description: Inhibition of human placental cytosolic fraction 17beta-HSD1 using [3H]-E1 as substrate in presence of NAD+ by radio-HPLC analysis

[2] = target: T2, Estradiol 17-beta-dehydrogenase 2 (Mus musculus, UniProt P51658); assay: biochemical; assay type: tissue-based, Liver
T2 sequence (P51658 whole entry): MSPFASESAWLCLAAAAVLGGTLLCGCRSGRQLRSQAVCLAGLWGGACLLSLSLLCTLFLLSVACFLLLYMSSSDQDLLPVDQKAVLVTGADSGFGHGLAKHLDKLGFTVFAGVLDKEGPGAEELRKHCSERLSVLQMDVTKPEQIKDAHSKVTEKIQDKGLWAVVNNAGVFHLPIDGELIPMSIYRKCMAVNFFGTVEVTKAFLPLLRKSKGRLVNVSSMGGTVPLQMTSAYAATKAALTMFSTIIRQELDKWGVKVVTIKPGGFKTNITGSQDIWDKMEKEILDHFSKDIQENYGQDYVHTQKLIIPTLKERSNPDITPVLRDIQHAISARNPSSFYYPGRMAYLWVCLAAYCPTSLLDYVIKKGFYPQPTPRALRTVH
Description: Inhibition of mouse liver homogenate 17beta-HSD2 using [3H]-E2 as substrate in presence of NAD+ by radio-HPLC analysis

[3] = in vitro; conditions: human, s9
Description: Half life in human liver S9 fraction in presence of NADPH, UDPGA, PAPS

[4] = target: T3, constitutive androstane receptor (NR1I3); CYP2 induction (Homo sapiens, UniProt Q14994); assay: in vitro
T3 sequence (Q14994 whole entry): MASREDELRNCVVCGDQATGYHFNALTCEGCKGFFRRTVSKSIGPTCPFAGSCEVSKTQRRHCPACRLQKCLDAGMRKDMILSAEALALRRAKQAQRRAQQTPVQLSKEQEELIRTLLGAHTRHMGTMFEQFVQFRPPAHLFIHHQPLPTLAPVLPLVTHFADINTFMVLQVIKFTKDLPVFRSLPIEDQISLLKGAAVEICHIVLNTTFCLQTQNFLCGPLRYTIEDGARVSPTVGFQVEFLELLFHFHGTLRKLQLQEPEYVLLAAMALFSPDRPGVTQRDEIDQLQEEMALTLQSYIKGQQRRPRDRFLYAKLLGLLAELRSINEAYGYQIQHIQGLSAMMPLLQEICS
Description: Agonist activity at recombinant human constitutive androstane receptor assessed as induction of CYP2 at 3.16 uM relative to control

[5] = target: T4, AhR (aryl hydrocarbon receptor); CYP1 induction (Homo sapiens, UniProt P35869); assay: in vitro; conditions: hepg2
T4 sequence (P35869 whole entry): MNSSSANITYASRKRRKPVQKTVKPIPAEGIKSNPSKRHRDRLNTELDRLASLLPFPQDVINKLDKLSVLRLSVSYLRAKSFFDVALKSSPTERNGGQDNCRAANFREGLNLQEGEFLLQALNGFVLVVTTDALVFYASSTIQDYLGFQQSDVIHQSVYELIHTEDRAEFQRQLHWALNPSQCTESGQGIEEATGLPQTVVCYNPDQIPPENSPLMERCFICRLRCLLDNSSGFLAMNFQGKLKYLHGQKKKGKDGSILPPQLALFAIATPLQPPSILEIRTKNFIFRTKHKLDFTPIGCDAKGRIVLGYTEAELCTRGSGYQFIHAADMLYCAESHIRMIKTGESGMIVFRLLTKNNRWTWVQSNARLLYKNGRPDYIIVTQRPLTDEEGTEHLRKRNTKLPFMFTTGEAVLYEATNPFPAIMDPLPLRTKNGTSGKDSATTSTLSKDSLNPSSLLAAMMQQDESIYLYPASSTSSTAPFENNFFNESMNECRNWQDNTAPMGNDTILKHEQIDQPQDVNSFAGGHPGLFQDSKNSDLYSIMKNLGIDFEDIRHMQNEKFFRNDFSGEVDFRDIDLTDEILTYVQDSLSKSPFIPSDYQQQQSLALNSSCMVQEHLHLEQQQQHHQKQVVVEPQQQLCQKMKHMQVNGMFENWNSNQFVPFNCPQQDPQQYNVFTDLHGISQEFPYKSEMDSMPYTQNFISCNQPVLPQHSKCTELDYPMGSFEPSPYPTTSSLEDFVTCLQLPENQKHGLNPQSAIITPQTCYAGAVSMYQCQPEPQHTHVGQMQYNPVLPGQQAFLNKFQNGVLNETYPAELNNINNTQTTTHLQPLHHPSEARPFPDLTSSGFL
Description: Agonist activity at AhR in human HepG2 assessed as induction of CYP1 at 3.16 uM relative to control

[6] = target: T5, 17-beta-hydroxysteroid dehydrogenase type 1 (Mus musculus, UniProt P51656); assay type: cell-based, HEK293
T5 sequence (P51656 whole entry): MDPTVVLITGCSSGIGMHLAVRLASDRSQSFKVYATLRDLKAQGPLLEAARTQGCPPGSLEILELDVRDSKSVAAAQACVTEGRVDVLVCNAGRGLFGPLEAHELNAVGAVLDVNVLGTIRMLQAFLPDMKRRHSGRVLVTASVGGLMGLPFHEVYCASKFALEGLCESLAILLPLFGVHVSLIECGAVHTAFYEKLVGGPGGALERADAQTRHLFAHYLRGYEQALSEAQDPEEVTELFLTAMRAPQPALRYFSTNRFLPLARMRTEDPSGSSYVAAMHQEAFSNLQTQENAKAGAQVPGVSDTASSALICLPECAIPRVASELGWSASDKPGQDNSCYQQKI
Description: Inhibition of recombinant mouse 17beta-HSD1 expressed in HEK293 cells using [3H]-E1 as substrate in presence of NAD+ by radio-HPLC analysis

[7] = target: T6, PXR (NR1I2); CYP3 induction (Homo sapiens, UniProt O75469); assay: in vitro
T6 sequence (O75469 whole entry): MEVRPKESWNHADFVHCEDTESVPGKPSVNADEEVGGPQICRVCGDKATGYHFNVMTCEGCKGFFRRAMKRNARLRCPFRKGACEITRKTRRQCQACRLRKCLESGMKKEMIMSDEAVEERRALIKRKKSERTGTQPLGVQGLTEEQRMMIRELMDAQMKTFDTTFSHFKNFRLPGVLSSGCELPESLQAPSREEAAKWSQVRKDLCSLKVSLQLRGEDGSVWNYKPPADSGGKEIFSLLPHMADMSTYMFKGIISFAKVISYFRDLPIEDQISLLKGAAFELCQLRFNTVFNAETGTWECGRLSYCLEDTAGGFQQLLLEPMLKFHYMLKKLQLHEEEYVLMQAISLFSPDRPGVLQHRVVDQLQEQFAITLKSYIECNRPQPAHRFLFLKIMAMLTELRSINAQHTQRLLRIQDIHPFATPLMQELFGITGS
Description: Agonist activity at recombinant human PXR assessed as induction of CYP3 at 3.16 uM after 60 mins relative to control

Row | SMILES | IC50 [1] [nM] | IC50 [2] [nM] | half-life [3] [min] | other results
1 | O=C(c1ccc(-c2cccc(NS(=O)(=O)c3ccc(F)cc3)c2)s1)c1cc(F)c(F)c(O)c1F |  | 27.3 | 32 | 
2 | Cc1ccc(S(=O)(=O)Nc2cccc(-c3ccc(C(=O)c4cc(F)c(F)c(O)c4F)s3)c2)cc1 | 0.1 | 9.9 | 32 | 
3 | O=C(c1ccc(-c2cccc(NS(=O)(=O)c3ccccc3C(F)(F)F)c2)s1)c1cc(F)c(F)c(O)c1F |  |  | 51 | 
4 | Cc1cccc(S(=O)(=O)Nc2cccc(-c3ccc(C(=O)c4cc(F)c(F)c(O)c4F)s3)c2)c1 | 0.1 | 7.9 | 28 | 
5 | O=C(c1ccc(-c2cccc(NS(=O)(=O)c3cccc(Cl)c3)c2)s1)c1cc(F)c(F)c(O)c1F | 0.8 | 5.6 | 42 | 
6 | O=C(c1ccc(-c2cccc(NS(=O)(=O)c3ccccc3OC(F)(F)F)c2)s1)c1cc(F)c(F)c(O)c1F |  |  | 60 | activity at 3.16 µM [4]: < 5%; activity at 3.16 µM [5]: < 5%; IC50 [6]: 1760 nM; activity at 1 h, 3.16 µM [7]: < 5%
7 | Cc1c(O)cccc1C(=O)c1ccc(-c2cccc(NS(=O)(=O)c3ccccc3)c2)s1 | 306 |  |  | 
8 | O=C(c1ccc(-c2cccc(NS(=O)(=O)c3ccc(Cl)cc3)c2)s1)c1cc(F)c(F)c(O)c1F | 0.7 | 6.2 | 40 | 

Further molecules by falling IC50 [1], results first:

Row | IC50 [1] [nM] | IC50 [2] [nM] | half-life [3] [min] | SMILES | other results
9 | 20.3 | 2.7 | < 5 | O=C(c1ccc(-c2cccc(NS(=O)(=O)c3ccccc3)c2)s1)c1cccc(O)c1Cl | 
10 | 15.6 | 2.7 | < 5 | O=C(c1ccc(-c2cccc(NS(=O)(=O)c3ccccc3)c2)s1)c1c(F)ccc(O)c1Cl | 
11 | 8.2 |  |  | O=C(c1ccc(Cl)c(O)c1)c1ccc(-c2cccc(NS(=O)(=O)c3ccccc3)c2)s1 | 
12 | 1.7 |  |  | O=C(c1ccc(-c2cccc(NS(=O)(=O)c3ccccc3)c2)s1)c1c(Cl)ccc(O)c1F | 
13 | 1.4 | 30.5 |  | O=C(c1ccc(-c2cccc(NS(=O)(=O)c3ccccc3)c2)s1)c1c(F)ccc(O)c1F | 
